Source: paper PMC4389228, “Ainsliadimer A selectively inhibits IKKα/β by covalently binding a conserved cysteine” (Nature Communications, 2015)

How the values were obtained:
[1] = biological target: T1, IKKα (Homo sapiens, UniProt O15111); assay: direct biotin labelling of purified protein, streptavidin pull-down and blot; format: binding
T1 construct: gene CHUK; purified Flag-IKKα
T1 sequence (O15111 1-745): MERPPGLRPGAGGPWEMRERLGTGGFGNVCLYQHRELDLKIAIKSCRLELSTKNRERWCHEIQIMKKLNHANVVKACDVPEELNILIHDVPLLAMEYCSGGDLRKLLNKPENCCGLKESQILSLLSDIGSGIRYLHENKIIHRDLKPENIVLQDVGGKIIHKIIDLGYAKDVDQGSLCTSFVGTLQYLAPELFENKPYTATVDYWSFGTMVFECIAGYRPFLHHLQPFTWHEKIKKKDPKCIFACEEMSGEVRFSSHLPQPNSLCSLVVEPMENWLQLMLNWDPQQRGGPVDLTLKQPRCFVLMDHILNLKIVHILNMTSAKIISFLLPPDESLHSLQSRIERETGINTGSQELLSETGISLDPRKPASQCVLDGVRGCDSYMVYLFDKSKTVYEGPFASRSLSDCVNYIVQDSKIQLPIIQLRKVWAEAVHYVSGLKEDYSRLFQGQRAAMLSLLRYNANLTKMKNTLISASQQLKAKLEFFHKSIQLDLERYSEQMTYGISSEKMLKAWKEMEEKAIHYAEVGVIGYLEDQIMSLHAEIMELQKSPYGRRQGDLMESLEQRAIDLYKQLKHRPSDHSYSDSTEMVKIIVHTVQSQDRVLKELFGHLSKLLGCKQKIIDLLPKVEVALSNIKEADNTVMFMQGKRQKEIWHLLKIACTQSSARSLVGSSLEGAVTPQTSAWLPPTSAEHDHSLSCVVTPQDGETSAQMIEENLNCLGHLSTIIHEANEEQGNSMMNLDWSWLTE

[2] = biological target: T2, IKKβ (Homo sapiens, UniProt O14920); assay: direct biotin labelling of purified protein, streptavidin pull-down and blot, competed by ainsliadimer A; time-dependent binding
T2 construct: gene IKBKB; purified Flag-IKKβ
T2 sequence (O14920 1-756): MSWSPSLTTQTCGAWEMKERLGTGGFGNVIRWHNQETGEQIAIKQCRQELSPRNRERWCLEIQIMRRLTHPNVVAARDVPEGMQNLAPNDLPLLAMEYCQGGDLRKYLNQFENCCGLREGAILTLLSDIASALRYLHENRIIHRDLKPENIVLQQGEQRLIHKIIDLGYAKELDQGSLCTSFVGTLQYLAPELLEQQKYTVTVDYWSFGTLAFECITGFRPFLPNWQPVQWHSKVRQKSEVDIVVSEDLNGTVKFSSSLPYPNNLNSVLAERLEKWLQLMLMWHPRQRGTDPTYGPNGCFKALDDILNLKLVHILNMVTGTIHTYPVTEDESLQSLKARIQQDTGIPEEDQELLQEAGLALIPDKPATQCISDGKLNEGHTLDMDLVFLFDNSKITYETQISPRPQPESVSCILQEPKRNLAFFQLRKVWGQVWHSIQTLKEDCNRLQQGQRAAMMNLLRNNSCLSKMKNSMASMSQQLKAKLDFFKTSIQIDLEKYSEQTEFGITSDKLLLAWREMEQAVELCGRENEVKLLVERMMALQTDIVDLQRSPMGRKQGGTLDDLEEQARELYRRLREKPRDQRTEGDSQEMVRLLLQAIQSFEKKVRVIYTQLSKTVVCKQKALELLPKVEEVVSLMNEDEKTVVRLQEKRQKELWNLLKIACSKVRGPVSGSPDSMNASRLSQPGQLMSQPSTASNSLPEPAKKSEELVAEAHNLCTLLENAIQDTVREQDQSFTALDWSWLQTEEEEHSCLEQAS

## C=C1C(=O)O[C@@H]2[C@@H]3[C@@H](C[C@H](OC(=O)CCOCCOCCOCCNC(=O)CCCC[C@@H]4SC[C@@H]5NC(=O)N[C@@H]54)[C@]34CC[C@]3(O)[C@@H]5[C@H]6OC(=O)C(=C)[C@@H]6CCC(=C)[C@@H]5C[C@]43O)C(=C)CC[C@@H]12 [Probe]
[1]
  direct biotin labelling of purified protein, streptavidin pull-down and blot: suggesting that there is a strong interaction between Probe and recombinant IKKα
[2]
  direct biotin labelling of purified protein, streptavidin pull-down and blot, co: we also observed a similar interaction pattern between Probe and recombinant IKKβ (Fig. 4d)
